Assay results as given in PMC7539012, “Hyperphosphorylated tau aggregation and cytotoxicity modulators screen identified prescription drugs linked to Alzheimer's disease and cognitive functions” (Scientific Reports, 2020).
Where a name gives a salt, the structure may show the parent alone.

Test system: T1, 1N4R p-tau
T1 construct: made in house; host or cells: E. coli (PIMAX system)
Assay: p-tau aggregation modulator screen of 1280-compound library (ThS fluorescence net change over 16 h);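 note: 30 µM compound with 6 µM p-tau over 16 h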
Assay type: biochemical
Conditions: not given

How did the ThS net change turn out when CN1[C@@H]2C[C@@H](OC(=O)[C@H](CO)c3ccccc3)C[C@H]1[C@@H]1O[C@@H]12.Cl [Scopolamine hydrochloride] was run?
Its ThS net change is 389.

For CC1(C)[C@H](C(=O)O)N2C(=O)C[C@H]2S1(=O)=O [Sulbactam], which ThS net change is on record?
Its ThS net change is 463.

How did the ThS net change turn out when Cl.Oc1noc2c1CCNC2 [THIP Hydrochloride] was run?
Its ThS net change is 448.

Which ThS net change does the source give for CCC(=O)O[C@H]1CC[C@H]2[C@@H]3CCC4=CC(=O)CC[C@]4(C)[C@H]3CC[C@]12C [Testosterone propionate] here?
Its ThS net change is 452.

Same assay, conditions: 1280-compound library screen; ThS fluorescence net change over 16 h

For CC(C)Cc1ccc([C@H](C)C(=O)O)cc1 [S-(+)-ibuprofen], which ThS net change is on record?
The ThS net change was 406.

How did the ThS net change turn out when NCCc1c[nH]c2ccc(O)cc12 [Serotonin hydrochloride] was run?
The ThS net change was 412.

CC(C)NCC(O)c1ccc(NS(C)(=O)=O)cc1 (centres unmarked) [Sotalol hydrochloride] was tested. Which ThS net change did it give?
Its ThS net change is 404.

For C[C@@H]1CN(c2c(F)c(N)c3c(=O)c(C(=O)O)cn(C4CC4)c3c2F)C[C@H](C)N1 [Sparfloxacin], which ThS net change is on record?
Its ThS net change is 403.

How did the ThS net change turn out when [H]/N=C(/N)N[C@H]1[C@H](O)[C@@H](O)[C@H](O[C@@H]2O[C@@H](C)[C@](O)(C=O)[C@H]2O[C@@H]2O[C@@H](CO)[C@H](O)[C@@H](O)[C@@H]2NC)[C@@H](N/C(N)=N\[H])[C@@H]1O [Streptomycin sulfate] was run?
The ThS net change was 397.

Which ThS net change does the source give for O=C(O)CCC(=O)Nc1ccc(S(=O)(=O)Nc2nccs2)cc1 [Succinylsulfathiazole] here?
The ThS net change was 382.

For Nc1ccc(S(=O)(=O)Nc2ncccn2)cc1 [Sulfadiazine], which ThS net change is on record?
Its ThS net change is 379.

For COc1cc(NS(=O)(=O)c2ccc(N)cc2)nc(OC)n1 [Sulfadimethoxine], which ThS net change is on record?
The ThS net change was 380.

With COc1ccc(NS(=O)(=O)c2ccc(N)cc2)nn1 [Sulfamethoxypyridazine] as the compound, how does the ThS net change read?
The ThS net change was 392.

With Nc1ccc(S(=O)(=O)Nc2ccccn2)cc1 [Sulfapyridine] as the compound, how does the ThS net change read?
The ThS net change was 394.

Nc1ccc(S(=O)(=O)Nc2nccs2)cc1 [Sulfathiazole] was tested. Which ThS net change did it give?
Its ThS net change is 389.

Cc1noc(NS(=O)(=O)c2ccc(N)cc2)c1C [Sulfisoxazole] was tested. Which ThS net change did it give?
Its ThS net change is 404.

How did the ThS net change turn out when COc1cc([S+](C)[O-])ccc1-c1nc2ncccc2[nH]1 (centres unmarked) [Sulmazole] was run?
The ThS net change was 406.

How did the ThS net change turn out when CNS(=O)(=O)Cc1ccc2[nH]cc(CCN(C)C)c2c1 [Sumatriptan succinate] was run?
The ThS net change was 393.

With CC(C(=O)O)c1ccc(C(=O)c2cccs2)cc1 (centres unmarked) [Suprofen] as the compound, how does the ThS net change read?
Its ThS net change is 391.

With CCCCC1(COC(=O)CCC(=O)O)C(=O)N(c2ccccc2)N(c2ccccc2)C1=O [Suxibuzone] as the compound, how does the ThS net change read?
Its ThS net change is 392.

For Nc1c2c(nc3ccccc13)CCCC2 [Tacrine hydrochloride], which ThS net change is on record?
The ThS net change was 405.

Which ThS net change does the source give for [H]/N=C(/NCCCCC)N/N=C/c1c[nH]c2ccc(OC)cc12 [Tegaserod maleate] here?
The ThS net change was 379.

Cn1nnc2c(C(N)=O)ncn2c1=O [Temozolomide] was tested. Which ThS net change did it give?
Its ThS net change is 380.

Same assay, conditions: 1280-compound library screen; […]

How did the ThS net change turn out when C#CCN(C)[C@H](C)Cc1ccccc1 [Selegiline hydrochloride] was run?
The ThS net change was 388.

CN[C@@H]1[C@@H](O)[C@@H](O[C@@H]2[C@@H](O)[C@H](O[C@H]3OC(CN)=CC[C@H]3N)[C@@H](N)C[C@H]2N)OC[C@]1(C)O [Sisomicin sulfate] was tested. Which ThS net change did it give?
The ThS net change was 381.

With C[C@]12Cc3c[nH]nc3C[C@@H]1CC[C@@H]1[C@@H]2CC[C@@]2(C)[C@H]1CC[C@]2(C)O [Stanozolol] as the compound, how does the ThS net change read?
Its ThS net change is 403.

CC(=O)[N-]S(=O)(=O)c1ccc(N)cc1.O.[Na+] [Sulfacetamide sodic hydrate] was tested. Which ThS net change did it give?
Its ThS net change is 393.

For Nc1ccc(S(=O)(=O)[N-]c2cnc3ccccc3n2)cc1.[Na+] [Sulfaquinoxaline sodium salt], which ThS net change is on record?
Its ThS net change is 398.

Same assay, conditions: library screen, ThS fluorescence net change over 16 h with p-tau

Cc1ncc([N+](=O)[O-])n1CC(C)O (centres unmarked) [Secnidazole] was tested. Which ThS net change did it give?
The ThS net change was 327.

For O=C(CCCN1CCC2(CC1)C(=O)NCN2c1ccccc1)c1ccc(F)cc1 [Spiperone], which ThS net change is on record?
The ThS net change was 313.

With O=C(O)c1cc(/N=N/c2ccc(S(=O)(=O)Nc3ccccn3)cc2)ccc1O [Sulfasalazine] as the compound, how does the ThS net change read?
Its ThS net change is 282.

Which ThS net change does the source give for CC1=C(CC(=O)O)c2cc(F)ccc2/C1=C\c1ccc([S+](C)[O-])cc1 (centres unmarked) [Sulindac] here?
Its ThS net change is 288.

Which ThS net change does the source give for Cc1scc2c1N(C(=O)CN1CCN(C)CC1)c1ccccc1NC2=O [Telenzepine dihydrochloride] here?
Its ThS net change is 326.

How did the ThS net change turn out when CC(C)N1CCN(c2ccc(OCC3COC(Cn4cncn4)(c4ccc(Cl)cc4Cl)O3)cc2)CC1 (centres unmarked) [Terconazole] was run?
Its ThS net change is 326.

With CC(C)(C)c1ccc(C(O)CCCN2CCC(C(O)(c3ccccc3)c3ccccc3)CC2)cc1 (centres unmarked) [Terfenadine] as the compound, how does the ThS net change read?
The ThS net change was 251.

Same assay, conditions: p-tau aggregation modulator screen of 1280-compound library; ThS fluorescence net change

Which ThS net change does the source give for CCc1cc(Cl)c(OC)c(C(=O)NC[C@@H]2CCCN2CC)c1O.Cl [S(-)Eticlopride hydrochloride] here?
Its ThS net change is 329.

With CC(C)(C)NCC(O)c1ccc(O)c(CO)c1 (centres unmarked) [Salbutamol] as the compound, how does the ThS net change read?
Its ThS net change is 367.

For OCc1cc(C(O)CNCCCCCCOCCCCc2ccccc2)ccc1O (centres unmarked) [Salmeterol], which ThS net change is on record?
Its ThS net change is 358.

O=C(O)c1cn(-c2ccc(F)cc2)c2cc(N3CCNCC3)c(F)cc2c1=O [Sarafloxacin] was tested. Which ThS net change did it give?
The ThS net change was 332.

Which ThS net change does the source give for CN[C@@H]1[C@H](O)[C@H](NC)[C@H]2O[C@@]3(O)C(=O)C[C@@H](C)O[C@H]3O[C@@H]2[C@H]1O.Cl.Cl [Spectinomycin dihydrochloride] here?
Its ThS net change is 361.

How did the ThS net change turn out when CC(=O)S[C@@H]1CC2=CC(=O)CC[C@]2(C)[C@H]2CC[C@@]3(C)[C@@H](CC[C@@]34CCC(=O)O4)[C@H]12 [Spironolactone] was run?
The ThS net change was 372.

Which ThS net change does the source give for Nc1ccc(S(=O)(=O)NC(=O)c2ccccc2)cc1 [Sulfabenzamide] here?
Its ThS net change is 347.

[H]/N=C(/N)NS(=O)(=O)c1ccc(N)cc1 [Sulfaguanidine] was tested. Which ThS net change did it give?
The ThS net change was 364.

Which ThS net change does the source give for COc1cnc(NS(=O)(=O)c2ccc(N)cc2)nc1 [Sulfameter] here?
Its ThS net change is 357.

Which ThS net change does the source give for Cc1nnc(NS(=O)(=O)c2ccc(N)cc2)s1 [Sulfamethizole] here?
Its ThS net change is 365.

How did the ThS net change turn out when Cc1cc(NS(=O)(=O)c2ccc(N)cc2)no1 [Sulfamethoxazole] was run?
Its ThS net change is 376.

How did the ThS net change turn out when Nc1ccc(S(N)(=O)=O)cc1 [Sulfanilamide] was run?
The ThS net change was 355.

How did the ThS net change turn out when Nc1ccc(S(=O)(=O)Nc2ccnn2-c2ccccc2)cc1 [Sulfaphenazole] was run?
The ThS net change was 334.

With O=C1C(CC[S+]([O-])c2ccccc2)C(=O)N(c2ccccc2)N1c1ccccc1 (centres unmarked) [Sulfinpyrazone] as the compound, how does the ThS net change read?
The ThS net change was 342.

CCCCCCCCNC(C)C(O)c1ccc(SC(C)C)cc1 (centres unmarked) [Suloctidil] was tested. Which ThS net change did it give?
The ThS net change was 370.

With CCN1CCCC1CNC(=O)c1cc(S(N)(=O)=O)ccc1OC (centres unmarked) [Sulpiride] as the compound, how does the ThS net change read?
Its ThS net change is 373.

Which ThS net change does the source give for COc1ccc2[nH]c([S+]([O-])Cc3ncc(C)c(OC)c3C)nc2n1 (centres unmarked) [Tenatoprazole] here?
Its ThS net change is 371.

CC(C)(C)NCC(O)c1cc(O)cc(O)c1.CC(C)(C)NCC(O)c1cc(O)cc(O)c1.O=S(=O)(O)O (centres unmarked) [Terbutaline hemisulfate] was tested. Which ThS net change did it give?
Its ThS net change is 339.

Same assay, conditions: p-tau aggregation modulator screen of 1280-compound library; […]

For Br.C[N+]1([O-])[C@@H]2C[C@@H](OC(=O)[C@H](CO)c3ccccc3)C[C@H]1[C@@H]1O[C@@H]12 (some centres unmarked) [Scopolamin-N-oxide hydrobromide], which ThS net change is on record?
Its ThS net change is 345.

For Clc1ccc(C(Cn2ccnc2)OCc2csc3c(Cl)cccc23)c(Cl)c1 (centres unmarked) [Sertaconazole nitrate], which ThS net change is on record?
The ThS net change was 344.

With CC(C)CC(N(C)C)C1(c2ccc(Cl)cc2)CCC1.Cl (centres unmarked) [Sibutramine HCl] as the compound, how does the ThS net change read?
Its ThS net change is 347.

Which ThS net change does the source give for Clc1ccc(CSC(Cn2ccnc2)c2ccc(Cl)cc2Cl)cc1 (centres unmarked) [Sulconazole nitrate] here?
The ThS net change was 336.

How did the ThS net change turn out when Cc1cc(C)nc([N-]S(=O)(=O)c2ccc(N)cc2)n1.[Na+] [Sulfamethazine sodium salt] was run?
The ThS net change was 366.

For CC/C(=C(\c1ccccc1)c1ccc(OCCN(C)C)cc1)c1ccccc1 [Tamoxifen citrate], which ThS net change is on record?
Its ThS net change is 336.

COc1cc2nc(N3CCN(C(=O)C4CCCO4)CC3)nc(N)c2cc1OC (centres unmarked) [Terazosin hydrochloride] was tested. Which ThS net change did it give?
The ThS net change was 366.

Same assay, conditions: p-tau aggregation modulator screen of the compound library, ThS fluorescence net change

For CC(C)(C)NC(=O)[C@@H]1C[C@@H]2CCCC[C@@H]2CN1C[C@@H](O)[C@H](Cc1ccccc1)NC(=O)[C@H](CC(N)=O)NC(=O)c1ccc2ccccc2n1 [Saquinavir mesylate], which ThS net change is on record?
The ThS net change was 568.

Which ThS net change does the source give for O=C1NCCN1CCN1CCC(c2cn(-c3ccc(F)cc3)c3ccc(Cl)cc23)CC1 [Sertindole] here?
Its ThS net change is 434.

CN[C@H]1CC[C@@H](c2ccc(Cl)c(Cl)c2)c2ccccc21 [Sertraline] was tested. Which ThS net change did it give?
Its ThS net change is 428.

With CCCc1nn(C)c2c(=O)[nH]c(-c3cc(S(=O)(=O)N4CCN(C)CC4)ccc3OCC)nc12 [Sildenafil] as the compound, how does the ThS net change read?
Its ThS net change is 461.

Which ThS net change does the source give for C[C@H](Cc1cc2c(c(C(N)=O)c1)N(CCCO)CC2)NCCOc1ccccc1OCC(F)(F)F [Silodosin] here?
Its ThS net change is 478.

With CCC(C)(C)C(=O)O[C@H]1C[C@@H](C)C=C2C=C[C@H](C)[C@H](CC[C@@H]3C[C@@H](O)CC(=O)O3)[C@H]21 [Simvastatin] as the compound, how does the ThS net change read?
Its ThS net change is 458.

CC(=O)N[C@@H](CC(=O)N[C@@H](CCC(=O)O)C(=O)O)C(=O)O [Spaglumic acid] was tested. Which ThS net change did it give?
The ThS net change was 425.

Which ThS net change does the source give for Cc1cn([C@H]2C=C[C@@H](CO)O2)c(=O)[nH]c1=O [Stavudine] here?
The ThS net change was 428.

How did the ThS net change turn out when Nc1ccc(S(=O)(=O)Nc2ccc(Cl)nn2)cc1 [Sulfachloropyridazine] was run?
The ThS net change was 413.

For COc1ncnc(NS(=O)(=O)c2ccc(N)cc2)c1OC [Sulfadoxine], which ThS net change is on record?
The ThS net change was 513.

Which ThS net change does the source give for Cc1ccnc(NS(=O)(=O)c2ccc(N)cc2)n1 [Sulfamerazine] here?
The ThS net change was 421.

For COc1cc(NS(=O)(=O)c2ccc(N)cc2)ncn1 [Sulfamonomethoxine], which ThS net change is on record?
The ThS net change was 419.

With C[C@]1(Cn2ccnn2)[C@H](C(=O)O)N2C(=O)C[C@H]2S1(=O)=O [Tazobactam] as the compound, how does the ThS net change read?
Its ThS net change is 834.

With O=c1[nH]c(=O)n(C2CCCO2)cc1F (centres unmarked) [Tegafur] as the compound, how does the ThS net change read?
Its ThS net change is 448.

CCCc1nc2c(C)cc(-c3nc4ccccc4n3C)cc2n1Cc1ccc(-c2ccccc2C(=O)O)cc1 [Telmisartan] was tested. Which ThS net change did it give?
The ThS net change was 454.

For CN1C(C(=O)Nc2ccccn2)=C(O)c2sccc2S1(=O)=O [Tenoxicam], which ThS net change is on record?
The ThS net change was 416.

CN(C/C=C/C#CC(C)(C)C)Cc1cccc2ccccc12 [Terbinafine] was tested. Which ThS net change did it give?
The ThS net change was 506.
